Consider one molecule from publication PMC9977718, “A photoswitchable inhibitor of TREK channels controls pain in wild-type intact freely moving animals” (Nature Communications, 2023).

The experiment has as its target T1, TRESK (Mus musculus, UniProt Q6VV64).
T1 construct: gene Kcnk18
T1 sequence (Q6VV64 1-394): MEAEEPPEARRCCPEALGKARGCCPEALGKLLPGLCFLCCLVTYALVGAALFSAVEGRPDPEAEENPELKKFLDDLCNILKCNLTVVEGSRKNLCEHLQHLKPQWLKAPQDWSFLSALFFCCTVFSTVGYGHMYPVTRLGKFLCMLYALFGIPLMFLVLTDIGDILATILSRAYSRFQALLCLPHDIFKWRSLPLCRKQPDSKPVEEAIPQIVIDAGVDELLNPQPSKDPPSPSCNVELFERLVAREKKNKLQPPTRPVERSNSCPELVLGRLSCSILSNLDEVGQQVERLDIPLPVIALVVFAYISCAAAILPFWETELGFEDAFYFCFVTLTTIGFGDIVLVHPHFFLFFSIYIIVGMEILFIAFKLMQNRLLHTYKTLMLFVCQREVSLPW
Description: whole-cell patch clamp, photoblock of mouse versus human channel. It is filed as cell-based.

As for `COc1ccccc1C(=O)Nc1cccc(N=Nc2cccc(C)c2)c1` [LAKI], the “whole-cell patch clamp, photoblock of mouse versus human channel” value is “LAKI photoblock is conserved among species since TRESK and TRAAK channel inhibitions are similar in mouse and human”.
